Laboratory results: article PMC3201719 (ACS medicinal chemistry letters, 2011)
Non-standard residues stand in square brackets, D forms with d. Residues, ends and D or L forms follow the SMILES beside them. *: point of attachment. Hydrocinnamoyl = O=C(CCc1ccccc1)*; pS = N[C@@H](COP(=O)(O)O)C(=O)O; X2 = COc1ccc(CC(=O)*)cc1OC

Target: BRCT-BRCA1 (Homo sapiens, UniProt P38398)
Experiment: Fluorescence polarization
Format: binding

Chain of BRCT-BRCA1 (P38398 1646-1859 limits assumed): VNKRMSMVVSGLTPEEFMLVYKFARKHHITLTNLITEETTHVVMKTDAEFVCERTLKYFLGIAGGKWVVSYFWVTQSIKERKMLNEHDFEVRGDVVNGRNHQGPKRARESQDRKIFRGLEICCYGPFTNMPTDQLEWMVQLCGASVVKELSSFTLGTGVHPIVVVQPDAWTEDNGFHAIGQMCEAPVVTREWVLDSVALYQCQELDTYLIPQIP

## CC(C)[C@H](NC(=O)[C@@H]1CCCN1C(=O)[C@H](COP(=O)(O)O)NC(=O)CCc1ccccc1)C(=O)N[C@@H](Cc1ccccc1)C(=O)O [compound 10] (Hydrocinnamoyl-[pS]PVF-OH; N-terminus assumed)
Compared to parent peptide 4
  fold higher activity than parent peptide 4: ~ 3 fold

## COc1ccc(CC(=O)N[C@@H](COP(=O)(O)O)C(=O)N2CCC[C@H]2C(=O)N[C@H](C(=O)N[C@@H](Cc2ccccc2)C(=O)O)C(C)C)cc1OC [compound 13] (X2-[pS]PVF-OH; N-terminus assumed)
Compared to mimic 9
  fold loss of activity compared to 9: ~ 150 fold
